Laboratory results from US20260325561A1, “4'-SUBSTITUTED NUCLEOSIDES AND NUCLEOTIDES AS ANTIVIRAL AGENTS” (THE SCRIPPS RESEARCH INSTITUTE, priority 2023, published 2026).

Legend:
[1] = cited from earlier work
DENV-2 = experiment: microbe, parasite or virus in culture; format: cell-based, DENV-2 16681; conditions: for SI (selectivity), DENV-2 HepG2 assay: SI=CC50/EC50
DENV = conditions: cited from earlier work
SARS-CoV-2 = experiment: microbe, parasite or virus in culture; format: cell-based, SARS-CoV-2 strain USA-WA1/2020
[2] = Cytotoxicity from screening; format: cell-based
HCoV-229E = experiment: microbe, parasite or virus in culture; format: cell-based
MEV = experiment: Antiviral activity against MEV; format: cell-based, MEV CC; conditions: FIG. 1
Experimental: (§1) All other antiviral assays were run at Utah State/Justin Julander through NIAID Preclinical Services. The following virus strains and cell lines were used:
(§2) Compounds were added to cells prior to addition of virus at an appropriate MOI to cause visible CPE. […] For compounds with an SI.5, a virus yield reduction assay was conducted, where supernatant collected from the CPE assay was titered for virus. The EC90 was calculated as the amount of compound needed to reduce the virus titer by 1 log 10.

in vitro [3] = conditions: human, hela-ace2 cells
MERS-CoV = format: cell-based, MERS-CoV EMC
in vitro [4] = conditions: human, hep2 cells
HRV 14 = experiment: microbe, parasite or virus in culture; format: cell-based, Human Rhinovirus 14 strain 1059
in vitro [5] = conditions: human, h1 hela cells
HCMV = experiment: HCMV/HFF antiviral assay; format: cell-based; conditions: Human betaherpesvirus 5, HFF
in vitro [6] = conditions: human, hct-8 cells
HRV 16 = experiment: microbe, parasite or virus in culture; format: cell-based, Human Rhinovirus 16 strain 11757
CHIKV = experiment: microbe, parasite or virus in culture; format: cell-based, CHIKV strain 181/25
Polio PV-3 = format: cell-based, PV-3 WM-3
YFV = experiment: microbe, parasite or virus in culture; format: cell-based, YFV strain 17D
Flu A H1N1 = experiment: Antiviral activity against Flu A H1N1; format: cell-based, Flu A H1N1 California/07/2009; conditions: Flu A H1N1, FIG. 1
Experimental: as §1, §2

in vitro [7] = conditions: human, mrc5 cells
SARS-CoV-1 = format: cell-based
Polio PV-1 = format: cell-based, PV-1 CHAT
COXV-B3 = experiment: Antiviral activity against COXV-B3; format: cell-based, COXV-B3 HA 201933; conditions: COXV-B3, FIG. 1
Experimental: as §1, §2

ZIKV = experiment: microbe, parasite or virus in culture; format: cell-based, ZIKV MR766
Cytotoxicity, HFF = format: cell-based; conditions: human, hff cells; read-out: HCMV/HFF CC50
HCoV-OC43 = experiment: microbe, parasite or virus in culture; format: cell-based, Human Coronavirus
RSV A2 = experiment: microbe, parasite or virus in culture; format: cell-based
in vitro [8] = conditions: human, hepg2 cells

C#C[C@@]1(O)[C@H](O)[C@@H](CO)O[C@H]1n1ccc2c(N)ncnc21 [NITD-008, reference compound]
two-week tox study outcome [1]: failed | SI (selectivity), DENV-2 HepG2 assay (DENV-2): 52 | selectivity compared to tubercidin (DENV-2; DENV-2 HepG2 assay, FIG. 1): improved selectivity compared to tubercidin | efficacy in DENV-infected mouse model (DENV): good efficacy

Nc1ncnc2c1ccn2[C@@H]1O[C@H](CO)[C@@H](O)[C@H]1O [Tubercidin, reference compound]
antiviral potency against SARS-CoV-2 (SARS-CoV-2; SARS-CoV-2, screening): high antiviral potency | antiviral potency against DENV (DENV-2; DENV, screening): high antiviral potency | SI (selectivity), DENV-2 HepG2 assay (DENV-2): 2 | cytotoxicity from screening [2]: significant cytotoxicity

Nc1ncnc2c1ccn2[C@@H]1O[C@](F)(CO)[C@@H](O)[C@H]1O [Example 1, (2S,3S,4R,5R)-5-(4-amino-7H-pyrrolo[2,3-d]pyrimidin-7-yl)-2-fluoro-2-(hydroxymethyl)tetrahydrofuran-3,4-diol]
activities and selectivity vs known compounds with the same MOA, SARS-CoV-2 (SARS-CoV-2; SARS-CoV-2): improved activities and selectivity | efficacy vs RDV parent nucleosides and N-hydroxycytidine, SARS-CoV-2 (SARS-CoV-2; SARS-CoV-2, FIG. 1): more efficacious than RDV parent nucleosides and N-hydroxycytidine | EC50 (SARS-CoV-2; Severe acute respiratory syndrome coronavirus 2, HeLa-ACE2, 24 h, read-out: SARS-CoV-2 / HeLa-ACE2 EC50): < 0.1 µM | efficacy vs RDV parent nucleosides and N-hydroxycytidine, HCoV-229E (HCoV-229E; HCoV-229E, FIG. 1): more efficacious than RDV parent nucleosides and N-hydroxycytidine | EC50 (HCoV-229E; Human coronavirus 229E, MRC5, 120 h, read-out: HCoV-229E/MRC5 EC50): 0.1 to 1 µM | efficacy vs RDV parent nucleosides and N-hydroxycytidine, MEV (MEV): more efficacious than RDV parent nucleosides and N-hydroxycytidine | CC50 at 24 h (in vitro [3]): 1 to 10 µM | efficacy vs RDV parent nucleosides and N-hydroxycytidine, MERS-CoV (MERS-CoV): more efficacious than RDV parent nucleosides and N-hydroxycytidine | CC50 (in vitro [4]): 1 to 10 µM | efficacy vs RDV parent nucleosides and N-hydroxycytidine, HRV14 (HRV 14; HRV14, FIG. 1): more efficacious than RDV parent nucleosides and N-hydroxycytidine | EC50 (HRV 14; Rhinovirus B, H1-HeLa, 48 h, read-out: HRV / H1 HeLa B 14 EC50): 0.1 to 1 µM | CC50 (in vitro [5]): 1 to 10 µM | EC50 (HCMV): 1 to 10 µM | CC50 (in vitro [6]): 1 to 10 µM | activities and selectivity vs known compounds with the same MOA, DENV (DENV-2; DENV): improved activities and selectivity | activities and selectivity compared to tubercidin and NITD-008 (DENV-2; DENV2 HepG2 assay): improved activities and selectivity compared to tubercidin and NITD-008 | efficacy vs RDV parent nucleosides and N-hydroxycytidine, DENV-2 (DENV-2; DENV-2, FIG. 1): more efficacious than RDV parent nucleosides and N-hydroxycytidine | EC50 (DENV-2; Dengue virus, DENV2, HepG2, 24 h, read-out: DENV-2 / HepG2 EC50): < 0.1 µM | efficacy vs RDV parent nucleosides and N-hydroxycytidine, HRV16 (HRV 16; HRV16, FIG. 1): more efficacious than RDV parent nucleosides and N-hydroxycytidine | EC50 (HRV 16; Rhinovirus A, H1-HeLa, 48 h, read-out: HRV / H1 HeLa A16 EC50): 0.1 to 1 µM | EC50 (CHIKV; Chikungunya virus, HepG2, 24 h, read-out: CHIKV / HepG2 EC50): < 0.1 µM | efficacy vs RDV parent nucleosides and N-hydroxycytidine, CHIKV (CHIKV; alphavirus CHIKV, FIG. 1): more efficacious than RDV parent nucleosides and N-hydroxycytidine | efficacy vs RDV parent nucleosides and N-hydroxycytidine, Polio PV-3 (Polio PV-3): more efficacious than RDV parent nucleosides and N-hydroxycytidine | efficacy vs RDV parent nucleosides and N-hydroxycytidine, YFV (YFV): more efficacious than RDV parent nucleosides and N-hydroxycytidine | EC50 (YFV; Yellow fever virus, HepG2, 24 h, read-out: YFV / HepG2 EC50): < 0.1 µM | efficacy vs RDV parent nucleosides and N-hydroxycytidine, Flu A H1N1 (Flu A H1N1): more efficacious than RDV parent nucleosides and N-hydroxycytidine | CC50 (in vitro [7]): 10 to 99 µM | efficacy vs RDV parent nucleosides and N-hydroxycytidine, SARS-CoV-1 (SARS-CoV-1): more efficacious than RDV parent nucleosides and N-hydroxycytidine | efficacy vs RDV parent nucleosides and N-hydroxycytidine, Polio PV-1 (Polio PV-1): more efficacious than RDV parent nucleosides and N-hydroxycytidine | efficacy vs RDV parent nucleosides and N-hydroxycytidine, COXV-B3 (COXV-B3): more efficacious than RDV parent nucleosides and N-hydroxycytidine | efficacy vs RDV parent nucleosides and N-hydroxycytidine, ZIKV (ZIKV; ZIKV, FIG. 1): more efficacious than RDV parent nucleosides and N-hydroxycytidine | EC50 (ZIKV; Zika virus, HepG2, 24 h, read-out: ZIKV / HepG2 EC50): < 0.1 µM | CC50 (Cytotoxicity, HFF): 1 to 10 µM | EC50 (HCoV-OC43; Betacoronavirus 1, OC43, HCT-8, 48 h, read-out: HCoV-OC43/HCT-8 EC50): 0.1 to 1 µM | efficacy vs RDV parent nucleosides and N-hydroxycytidine, HCoV-OC43 (HCoV-OC43; HCoV-OC43, FIG. 1): more efficacious than RDV parent nucleosides and N-hydroxycytidine | efficacy vs RDV parent nucleosides and N-hydroxycytidine, RSV A2 (RSV A2; RSV A2, FIG. 1): more efficacious than RDV parent nucleosides and N-hydroxycytidine | EC50 (RSV A2; human respiratory syncytial virus, HEp-2, 72 h, read-out: RSV A2 / Hep2 EC50): < 0.1 µM | CC50 at 72 h (in vitro [8]): 1 to 10 µM
